Measured values taken from ChEMBL document CHEMBL4619759, “A DNA Repair Inhibitor Isolated from an Ecuadorian Fungal Endophyte Exhibits Synthetic Lethality in PTEN-Deficient Glioblastoma” (2020).
The source made the active and inactive calls. The calls are words filed in the database; no cut-off is given here.

Columns and labels:
U-251 [1] = assay: Induction of DNA damage in PTEN-proficient human U251 cells assessed as accumulation of gammaH2AX positive cells at S phase at 6.25 to 12.5 ug/ml measured after 4 to 24 hrs by PI staining based flow cytometric analysis; format: functional, cell-based
U-251 [2] = assay: Induction of cell cycle arrest in PTEN-proficient human U251 cells assessed as accumulation at G2/M phase at 6.25 to 12.5 ug/ml incubated for 4 hrs followed by irradiation with 5 Gy IR by PI staining based flow cytometric analysis; format: functional
U-251 [3] = assay: Induction of cell cycle arrest in PTEN-deficient human U251 cells assessed as accumulation at G1 phase at 6.25 to 12.5 ug/ml after 4 to 24 hrs by PI staining based flow cytometric analysis; format: functional
U-251 [4] = assay: Inhibition of DSB repair in PTEN-deficient 5 Gy IR-induced human U251 cells assessed as increase in comet tail moment at 12.5 ug/ml pretreated followed by irradiation with 5 Gy IR by neutral comet assay; format: functional, cell-based
U-251 [5] = assay: Induction of DNA damage in PTEN-deficient human U251 cells assessed as accumulation of gammaH2AX positive cells at G1 phase at 12.5 ug/ml in presence of 5 Gy IR irradiation measured after 4 to 24 hrs by PI staining based flow cytometric analysis; format: functional, cell-based
[6] = Inhibition of DSB repair in PTEN-deficient human U2OS EJ-DR cells assessed as reduction in mutagenic non-homologous end joining activity at 12.5 ug/ml incubated for 24 hrs in presence of DSB inducer by flow cytometric analysis relative to control; format: functional
U-251 [7] = assay: Induction of DNA damage in PTEN-deficient human U251 cells assessed as accumulation of gammaH2AX positive cells at S phase at 6.25 to 12.5 ug/ml measured after 4 to 24 hrs by PI staining based flow cytometric analysis; format: functional, cell-based
U-251 [8] = assay: Induction of DNA damage in PTEN-proficient human U251 cells assessed as accumulation of gammaH2AX positive cells at G2/M phase at 6.25 to 12.5 ug/ml measured after 4 to 24 hrs by PI staining based flow cytometric analysis; format: functional, cell-based
U-251 [9] = assay: Induction of DNA damage in PTEN-deficient human U251 cells assessed as gammaH2AX foci formation at 12.5 ug/ml in presence of 5 Gy IR irradiation measured after 4 to 24 hrs by PI staining based flow cytometric analysis; format: functional, cell-based
U-251 [10] = assay: Inhibition of DSB repair in PTEN-deficient human U251 cells at 12.5 ug/ml by neutral comet assay; format: functional, cell-based
U-251 [11] = assay: Induction of DNA damage in PTEN-deficient human U251 cells assessed as accumulation of gammaH2AX positive cells at G2/M phase at 6.25 to 12.5 ug/ml measured after 4 to 24 hrs by PI staining based flow cytometric analysis; format: functional, cell-based
U-251 [12] = assay: Induction of DNA damage in PTEN-deficient human U251 cells assessed as accumulation of gammaH2AX positive cells at G1 phase at 6.25 to 12.5 ug/ml measured after 4 to 24 hrs by PI staining based flow cytometric analysis; format: functional, cell-based
U-251 [13] = assay: Induction of DNA damage in PTEN-deficient human U251 cells assessed as gammaH2AX accumulation at 6.25 to 12.5 ug/ml after 4 to 24 hrs by PI staining based flow cytometric analysis; format: functional, cell-based
U-251 [14] = assay: Radiosensitizer activity in PTEN-deficient human U251 cells assessed as reduction in cell survival at 6.25 to 12.5 ug/ml in presence of 5 Gy IR irradiation by CellTiter-Glo cell viability assay; format: functional, cell-based
U-251 [15] = assay: Selective cytotoxicity against PTEN-deficient human U251 cells at 12.5 ug/ml after 48 hrs by CellTiter-Glo luminescent cell viability assay; format: functional, cell-based
U-251 [16] = assay: Induction of DNA damage in PTEN-proficient human U251 cells assessed as accumulation of gammaH2AX positive cells at G1 phase at 6.25 to 12.5 ug/ml measured after 4 to 24 hrs by PI staining based flow cytometric analysis; format: functional, cell-based
[17] = Inhibition of DSB repair in PTEN-deficient human U2OS EJ-DR cells assessed as reduction in homologous recombination activity at 12.5 ug/ml incubated for 24 hrs in presence of DSB inducer by flow cytometric analysis relative to control; format: functional
U-251 [18] = assay: Induction of cell cycle arrest in PTEN-deficient human U251 cells assessed as accumulation at G2/M phase at 6.25 to 12.5 ug/ml incubated for 4 hrs followed by irradiation with 5 Gy IR by PI staining based flow cytometric analysis; format: functional

With `O=C1Nc2ccccc2-c2ccnc3ccc(O)c1c23` the Activity (U-251 [1]) was “inactive”, the Activity (U-251 [2]) was “Active” and the Activity (U-251 [3]) was “Active”. The inhibition (U-251 [4]) was “Active”, the Activity (U-251 [5]) was “Active” and the inhibition at 12.5 µg/mL [6] was 48%. For the same molecule, the Activity (U-251 [7]) was “inactive”, the Activity (U-251 [8]) was “inactive” and the Activity (U-251 [9]) was “Active”. For the same molecule, the inhibition (U-251 [10]) was “Active”, the Activity (U-251 [11]) was “inactive” and the Activity (U-251 [12]) was “inactive”. The Activity (U-251 [13]) was “Active”, the Activity (U-251 [14]) was “Active” and the Activity (U-251 [15]) was “Active”. The Activity (U-251 [16]) was “inactive”, the inhibition at 12.5 µg/mL [17] was 46% and the Activity (U-251 [18]) was “Active”.
